Source: patent US20090142285A1, “COSMETIC COMPOSITION COMPRISING ASCORBIC ACID 2-GLUCOSIDE AND ERGOTHIONEINE” (LVMH RECHERCHE, priority 2007, published 2009)

Assays:
[1] = system: non-specific digestive activity (nuclease) of cell extracts; assay: OLISA biochip: non-specific digestion of control oligonucleotide (no lesion) by extracts of treated fibroblasts; type: cell-based, human; conditions: immediately after treatment, 2 donors
Method: (§1) Fibroblasts from each of the donors, […] (FHN52) and […] (FHN 1C), were cultured and treated in the exponential growth phase.
(§2) Fibroblasts were treated with ergothioneine (AGI Dermatics, Newport, N.Y., USA) at a non-cytotoxic concentration of 4 mM for 24 hours.
(§3) Treatment of fibroblasts with ascorbic acid 2-glucoside (Siber Hegner, Miribel, France) was carried out at a non-cytotoxic concentration of 50 μM of […] for 24 hours.
(§4) Nuclear extracts were prepared in order to obtain protein solutions containing the repair enzymes of interest.
(§5) OLISA technology (Bonnet-Duquennoy et al., Eur. J. Dermatol., 16, 2, 136-140 2006) was used to measure the excision of nucleic bases modified by glycosylase type DNA repair enzymes.
For this study, 2 spots per lesion of interest or control oligonucleotide (without lesion) and 3 spots used to direct the readings were used.
(§6) Functionalised wells were incubated at 30° C. in the presence of the extract of interest.
(§7) The duration of digestion chosen is 45 minutes for the experiments. Extracts were deposited in four wells.
In order to determine the effect of ergothioneine, on the one hand, and of ascorbic acid 2-glucoside, on the other, on non-specific digestion of extracts, data obtained with the control oligonucleotide normalised by the control were used.
In the same way, an analysis was carried out for each of the 2 donors tested. […]

[2] = system: human cell lines; conditions: cited from earlier work
[3] = system: Fibroblasts; assay: Cytotoxicity of the treatment concentration on fibroblasts; type: cell-based, human; conditions: 4 mM for 24 hours
Method: as §2, §3

[4] = system: glycosylase type DNA repair enzymes; assay: OLISA biochip: excision of modified DNA bases by nuclear extracts of treated fibroblasts, donor (FHN52); type: cell-based, human; conditions: for digestion activity (elimination of modified DNA bases formed as a result of oxidative stress): overall conclusion
Method: (§8) Fibroblasts were obtained from a breast sample from a person and from photo-protected skin of a person.
as §1, §2, §3, §4
(§9) Extracts were used at a final concentration of 10 μg/ml.
as §5
(§10) The principle (FIG. 1) is described in the publication entitled: “An oligonucleotide micro-array for the monitoring of repair enzyme activity toward different DNA damage”, Sauvaigo et al., Annal. Biochem. (2004); 333: 182-192.
(§11) Labelled oligonucleotide probes immobilised on the support generate synthetic double strand DNA containing in their base sequence, the altered base whose repair activity by cellular enzymes is being studied.
(§12) The probes were determined in order to study enzyme repair typical lesions resulting from exposure to oxidative stress (FIG. 2).
(§13) An OLISA format chip (96-well plate; bioMérieux, Grenoble, France) with 17 spots was functionalised by oligonucleotides containing the various lesions of interest (LAN synthesis, CEA, Grenoble, France).
as §6, §7
(§14) Thus for each lesion, the percentage of lesions remaining after the extract activity is determined by calculating the ratio of “extract” well signals with respect to control wells which represent 100% lesions (calculation carried out using the mean of the 8 values obtained).
(§15) Similarly, to determine the effect of each of the 2 active ingredients on specific digestion of extracts, data obtained for each of the lesions were normalised by data obtained with the control oligonucleotide normalised by the control.

[5] = system: glycosylase type DNA repair enzymes; assay: OLISA biochip: excision of modified DNA bases by nuclear extracts of treated fibroblasts, donor (FHN 1C); type: cell-based, human
Method: as §8, §1, §2, §3, §4, §9, §5, §10, §11, §12, §13, §6, §7, §14, §15

[6] = system: keratinocytes; conditions: cited from earlier work
[7] = system: mouse skin cells placed in culture; conditions: cited from earlier work
[8] = ergothioneine 4 mM 24 hours, rinsed, recultured without ergothioneine a further 24 hours, donor (FHN 52)
[9] = ergothioneine 4 mM 24 hours, donor (FHN 52), immediately after treatment
[10] = ergothioneine 4 mM 24 hours, immediately after treatment
[11] = ascorbic acid 2-glucoside 50 μM, 24 hours after treatment, donor (FHN 52)
[12] = ascorbic acid 2-glucoside 50 μM, 24 hours after treatment

C[N+](C)(C)[C@@H](Cc1c[nH]c(=S)[nH]1)C(=O)[O-] [ergothioneine]
effect on the control oligonucleotide (non-specific digestion) ([1]; ergothioneine 4 mM for 24 hours): no significant effect | DNA oxidation caused by peroxinitrites [2]: inhibits | cell death triggered by hydrogen peroxide [2]: inhibits | cytotoxicity at treatment concentration [3]: non-cytotoxic | residual percentage of 8-oxo-dG lesion [4, 8]: decreases significantly | residual percentage of HmdU lesion [4, 8]: decreases significantly | residual percentage of ethenoda lesion [4, 8]: decreases significantly | residual percentage of formylamine lesion [4, 8]: decreases significantly | residual percentage of inosine lesion [4, 8]: decreases significantly | residual percentage of formylamine lesion [4, 9]: decreases significantly | residual percentage of inosine lesion [4, 9]: decreases significantly | residual percentage of uracil lesion [4, 9]: decreases significantly | residual percentage of 8 oxodG lesion ([4]; ergothioneine 4 mM 24 hours, donor (FHN 52), immediately after treatment, normalised to control oligonucleotide): decreases significantly | digestion activity (elimination of modified DNA bases formed as a result of oxidative stress) ([4]; ergothioneine 4 mM, fibroblast extracts): significantly increases | residual percentage of formylamine lesion [5, 10]: decreases significantly | residual percentage of uracil lesion [5, 10]: decreases significantly

O=C1O[C@H]([C@@H](O)CO)C(O)=C1O[C@H]1O[C@H](CO)[C@@H](O)[C@H](O)[C@H]1O [ascorbic acid 2-glucoside, 2-O-α-D-Glucopyranosyl L-ascorbic acid]
protection against cytotoxicity caused by UVB [6]: effective agent in protecting keratinocytes | effect on the control oligonucleotide (non-specific digestion) ([1]; ascorbic acid 2-glucoside 50 μM for 24 hours): did not have a significant effect | cell DNA fragmentation after damage caused by UVA or UVB [7]: reduction in the cell DNA fragmentation | residual percentage of 8-oxo-dG lesion [4, 11]: decreases significantly | residual percentage of formylamine lesion [4, 11]: decreases significantly | residual percentage of inosine lesion [4, 11]: decreases significantly | residual percentage of uracil lesion [4, 11]: decreases significantly | digestion activity (elimination of modified DNA bases formed as a result of oxidative stress) ([4]; ascorbic acid 2-glucoside 50 μM, fibroblast extracts of donor): significantly increases | residual percentage of 8 oxodG lesion [5, 12]: decreases significantly | residual percentage of formylamine lesion [5, 12]: decreases significantly | residual percentage of inosine lesion [5, 12]: decreases significantly | residual percentage of uracil lesion [5, 12]: decreases significantly
